Experiments:
albumin = biological target: T1, albumin (Homo sapiens, UniProt P02768); parameters: method as in Barbas et al.; settings: equimolar DFSA/albumin ratios; ref Barbas et al.; cited from earlier work
T1 construct: purchased Sigma-Aldrich A8763

[1] = Stability of oxaliplatin in PB at pH 7.4 (HPLC); format: physicochemical; settings: pH 7.4, 20 °C
Protocol: The samples were incubated at 20 °C and measured over 25 h. […] RP-HPLC runs were performed using a Waters Acquity UPLC HSS T3 column (100 Å, 1.8 μm, 3.0 mm × 50 mm) on a Dionex Thermo Scientific UltiMate 3000 HPLC system, equipped with a HPG-3400RS binary pump and a DAD-3000RS UV–vis detector. Chromatograms were evaluated at a wavelength of 230 nm. Milli-Q water (mobile phase A) and acetonitrile (mobile phase B), both containing 0.1% TFA, were used as eluents. The flow rate was consistent at 0.6 mL/min for all measurements using the following gradient: 0–0.5 min A 99:1 B, 0.5–5.5 min linear gradient to A 1:99 B, 5.5–6.5 min A 1:99 B, 6.5–9.2 min A 99:1 B.

[2] = parameters: method as in Schueffl et al.; settings: oxaliplatin data used from earlier paper, ref Schueffl et al., cited from earlier work
CT26 colon cancer cells = test system: CT26 colon cancer cells; parameters: method as in Schueffl et al.; settings: already described in earlier studies; ref Schueffl et al.; cited from earlier work
[3] = serum platinum, i.v. 9 mg/kg oxaliplatin

T1 sequence (P02768 25-609): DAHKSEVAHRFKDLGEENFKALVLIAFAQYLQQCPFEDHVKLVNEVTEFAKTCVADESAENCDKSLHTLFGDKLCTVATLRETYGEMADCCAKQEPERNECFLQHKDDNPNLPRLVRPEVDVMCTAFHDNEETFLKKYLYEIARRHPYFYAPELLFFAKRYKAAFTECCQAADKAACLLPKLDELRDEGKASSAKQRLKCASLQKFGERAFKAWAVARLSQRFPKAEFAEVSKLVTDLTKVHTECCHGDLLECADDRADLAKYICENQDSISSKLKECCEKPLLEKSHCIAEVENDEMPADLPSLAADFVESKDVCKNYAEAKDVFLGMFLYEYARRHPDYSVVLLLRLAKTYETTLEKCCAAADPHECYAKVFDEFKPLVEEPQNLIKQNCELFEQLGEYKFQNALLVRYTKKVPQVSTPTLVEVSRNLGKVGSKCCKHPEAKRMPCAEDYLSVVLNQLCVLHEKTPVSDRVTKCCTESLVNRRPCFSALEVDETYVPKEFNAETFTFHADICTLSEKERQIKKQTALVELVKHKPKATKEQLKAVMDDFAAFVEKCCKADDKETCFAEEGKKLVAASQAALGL

| SMILES | Albumin binding after 24 h (albumin) | Hydrolysis after 25 h [1] [%] | AUCPt_0-24 [2, 3] [mg·h/kg] | AUCPt_0-∞ [2, 3] [mg·h/kg] | Cmax ([2]; serum platinum, tmax=0.08 h) [mg/kg] | Half-life ([2]; terminal half-life) [h] | Vz ([2]; terminal phase) [kg/kg] | Percentage of AUCPt_0-∞ extrapolated from tlast to infinity ([2]; tlast=24 h) [%] | CL ([2]; total body clearance) [kg/h/kg] | Effect on overall survival in the CT26 model (CT26 colon cancer cells) |
| --- | --- | --- | --- | --- | --- | --- | --- | --- | --- | --- |
| O=C(O)C1=CCCCC1S(=O)(=O)Nc1ccc(F)cc1F (stereo not shown) [DFSA, 6-(N-(2,4-difluorophenyl)-sulfamoyl)-cyclohex-1-ene-1-carboxylic acid] | less than 25% |  |  |  |  |  |  |  |  |  |
| O=C1[O][Pt]2([NH][C@@H]3CCCC[C@H]3[NH]2)[O]C1=O [oxaliplatin] |  | ~15 | 26.6 | 37.5 | 6.17 | 14.3 | 2.42 | 29.0 | 0.118 | does not lead to prolonged overall survival |

Reference: publication PMC12261219, “Comparative Evaluation of Thiol- and Amine-Conjugating Moieties for Endogenous Albumin Binding after Intravenous Administration” (ACS Pharmacology & Translational Science, 2025)
